- melting point: 100.5 to 102.1 °C
Compound: COc1ccc(-c2cnc(SCC(=O)NCC[C@@H]3C[C@@H](Cc4ccc(Cl)c(Cl)c4)CN3)nc2)cc1OC.Cl

— patent publication US6552028B2, “2,4-substituted pyrrolidine derivatives-CCR-3 receptor antagonists” (Syntex (U.S.A.) LLC, priority 2000, dated 2003)
